Laboratory results as given in patent publication US20110281852A1 (priority 2010, published 2011).

Legend:
C/EBPα = assay: Real-time RT-PCR, C/EBPα mRNA in 3T3-L1; type: cell-based, mouse; conditions: 8 days
Description: Realtime RT-PCR: Real-time reverse transcriptase polymerase chain reaction (RT-PCR) analysis was used to measure mRNA expression of genes SREBP-1, PPARγ, C/EBPα, low density lipoprotein receptor (LDLR), Adiponectin, and fatty acid synthase (FAS) under the control of β-actin. Briefly, total RNA was isolated from 3T3-L1 cells following treatment for 8 days with Trizol reagent (Invitrogen, Carlsbad, Calif., USA) according to the manufacturer's instruction. RNA was quantified using absorption of light at 260 nm, and sample purity was checked by OD 260 nm/280 nm. 0.8 μg of total RNA from each sample was used for reverse transcription reaction using the TaqMan Reverse Transcription Reagents (Applied Biosystems, Foster City, Calif., USA) according to the manufacturers' instructions. PCR was done using the SYBR green Master Mix (Applied Biosystems, Foster City, Calif., USA) according to the manufacturers' instructions. The temperature cycling conditions of amplification were as follows: an initial step of denaturation at 95° C. for 10 min, 40 cycles of denaturation at 95° C. for 30 s, annealing at 55° C. for 30 s, and elongation at 72° C. for 30 s. Realtime RT-PCR was performed using Mx3000P Realtime Thermocyclers (Statagene, La Jolla, Calif., USA). The relative mRNA levels of these genes were calculated by 2-delta delta CT method and normalized with control groups.

[1] = Serum total cholesterol assay in mice; type: in vivo, mouse
Description: Six mice per subgroup were obtained finally.
Serum glucose, triglyceride, cholesterol assay: Blood samples from each mouse were collected and serum was separated by centrifugation for the measurement of levels of glucose, triglyceride and total cholesterol. Serum glucose concentrations were analyzed using Glucose (HK) Assay Kit (Sigma-aldrich, Saint Louis, Mo., USA). Serum triglyceride concentrations were analyzed using Serum Triglyceride Determination Kit (Sigma-aldrich, Saint Louis, Mo., USA). Serum cholesterol concentrations were analyzed using Amplex® Red Cholesterol Assay Kit (Invitrogen, Carlsbad, Calif., USA). All experimental assays were done according to the manufacturer's instructions.

GATA-2 = assay: Immunoblot, GATA-2 protein in HWP; type: cell-based, human; conditions: day 15
Description: Immunoblot Analysis: Protein expression of GATA-2, GATA-3, PPARγ and C/EBPα were assessed by Western Blot. Total proteins were isolated from HWP treated with compounds or vehicles on day 15. The cells were washed twice with PBS, lysed in a lysis buffer containing HEPES-Tx-PI buffer: […] HEPES, 5 mM EDTA, 350 mM Sucrose, 1 μg/ml leupeptin, 1 μg/ml pepstatin, 1% Triton-X, 1 mM PMSF), processed with a 25G needle and centrifuged at 10,000 rpm for 5 min. Protein concentration was determined using the Micro BCA Protein Assay Kit (Fisher Scientific, Pittsburgh, Pa., USA) according to the manufacturers instructions. 20 μg proteins were loaded and separated by electrophoresis using the BioRad Electrophoretic System (60 V for 1 hour followed by 90 V for 5 hours). The proteins were then transferred to nitrocellulose membranes at 35 V overnight. The membrane was blocked for 1 hour at room temperature in 5% nonfat milk in Tris-buffered saline (TBS), then washed with Tween-20-TBS (TTBS, 0.1% Tween-20) three times (15 min, 5 min, 5 min), followed by incubation with primary antibodies human GATA-2, GATA-3, PPARγ, C/EBPα and β-actin (dilution 1:200) (all antibodies were purchased from Santa Cruz Biotechnology, Santa Cruz, Calif., USA) at room temperature for 2 hours. The membrane was rinsed three times (15 min, 5 min, 5 min), then incubated at room temperature for 1 hour with Horseradish peroxidase-conjugated second antibody (1:10,000). The membrane was then incubated in ECL reagent (GE Healthcare, Piscataway, N.J., USA) for 1 minute. Protein was visualized using the UVP image analysis system (UVP, Upland, Calif., USA).

[2] = tested on: SERT promoter (5-HTTLPR alleles); assay: DRL (dual luciferase reporter) assay, SERT promoter activity of 5-HTTLPR alleles in RN46A cells; type: cell-based; conditions: 2 μM evodiamine
Description: The PCR reaction to amplify the 5-HTTLPR alleles for sequencing and creation of reporter constructs contained primers different than those used for the genotyping experiment.
The primer sequences were described previously and are as follows: Forward primer 5′-[…]-3′ (SEQ ID NO:25) and Reverse primer 5′-[…]-3′ (SEQ ID NO:26) (Hu et al., Am J Hum Genet (2006) 78(5):815-826). The PCR products of the six 5-HTTLPR alleles (S, LG, LA, XS, XL-17, and XL-18) were subcloned into the TOPO TA cloning vector pCR2.1-TOPO (Invitrogen) and transformed to One Shot TOP10 competent E. coli cells according to the manufacturer's instructions. In the case of individuals heterozygous for 5-HTTLPR, resulting transformants were screened for the presence of the correct insert using the restriction enzyme EcoR I.
The resulting constructs, created and sequenced, in the pCR2.1-TOPO vector (S, LG, LA, XS, XL-17, and XL-18 alleles) were subcloned to the luciferase reporter vector pGL4.10 [luc2] (Promega) using standard molecular techniques. Additionally, each allele was cloned into pGL4.10 [luc2] in the backwards orientation to ensure that transcriptional effects were the result of consensus promoter sequences. […] The co-transfection with the 5-HTTLPR pGL4.10 constructs (firefly luciferase) and the pRL-SV40 vector (renilla luciferase) to the RN46A raphe-derived cell line using Lipofectamine 2000 (Invitrogen) was described previously. Expression was measured using the Dual-Luciferase Reporter Assay System (Promega) 24 h after transfection with passive lysis buffer.
Relative light units (RLU) for both the firefly and renilla luciferase was measured using a 20/20^n Luminometer (Turner Biosystems, Sunnyvale Calif. 94085) and the ratio between the firefly RLU to renilla RLU in each sample was determined. The values were all normalized to the (S) allele.

COc1ccc2cc3[n+](cc2c1OC)CCc1cc2c(cc1-3)OCO2.[Cl-] [berberine, Berberine (Chloride Form)]
decrease of C/EBPα mRNA expression vs clozapine treated group (C/EBPα; 8 μM berberine + 15 μM clozapine): 94.7% | decrease of C/EBPα mRNA expression vs risperidone treated group (C/EBPα; 8 μM berberine + 50 μM risperidone): 96.4% | reduction of serum total cholesterol level ([1]; FD mice, 0.75 mg/kg/day): 18.7% | serum total cholesterol level ([1]; FD mice, 0.75 mg/kg/day, 36 days (control 152.4±15.2)): 123.9 ± 16.5 mg/dL | reduction of serum total cholesterol level ([1]; FD mice, 1.5 mg/kg/day): 22.2% | serum total cholesterol level ([1]; FD mice, 1.5 mg/kg/day, 36 days): 118.5 ± 14.7 mg/dL | reduction of serum total cholesterol level ([1]; FD mice, 3 mg/kg/day): 28% | serum total cholesterol level ([1]; FD mice, 3 mg/kg/day, 36 days): 109.8 ± 22.7 mg/dL | serum total cholesterol level ([1]; ND mice, 3 mg/kg/day (control 96.5±16.5)): 97.4 ± 18.3 mg/dL

evodiamine
GATA-2 protein expression relative to β-actin, normalized with controls (GATA-2; 1 μM): 2.44 fold | GATA-2 protein expression relative to β-actin, normalized with controls (GATA-2; 2 μM): 4.81 fold | GATA-2 protein expression relative to β-actin, normalized with controls (GATA-2; 4 μM): 4.92 fold | increase of SERT promoter activity vs vehicle ([2]; LA allele): 171.5% | increase of SERT promoter activity vs vehicle ([2]; LG allele): 288.5% | increase of SERT promoter activity vs vehicle ([2]; S allele): 206.9% | increase of SERT promoter activity vs vehicle ([2]; XL17 allele): 165.6% | increase of SERT promoter activity vs vehicle ([2]; XL18 allele): 96.3% | increase of SERT promoter activity vs vehicle ([2]; XS allele): 74.3%
